# Assays:
# [1] = tested on: ENR+CD organoids (ISC to Paneth cell differentiation); assay: Secondary (validation) screen: LYZ.S CCh-stimulated lysozyme secretion, 2.5-D 384-well ENR+CD organoids; format: cell-based, mouse; settings: for Dose.FC.LYZ.S: 6-day ENR+CD, vs ENR+CD+DMSO
# [2] = tested on: Paneth cells in ENR+CD organoids; assay: Flow cytometry of 3D-cultured intestinal organoids, Paneth cells (lysozyme-positive, CD24-positive); format: cell-based, mouse
# From the text: Flow cytometry analysis (3D culture). ISC-enriched organoids cultured in 3D Matrigel with ENRCV media were passaged to 24-well plate in 3D Matrigel with ENRCV. At day zero, media were replaced to ENRCD with or without indicated compounds, and media were replaced every other day. At day six, cells were washed with basal media, and then harvested from Matrigel by mechanical disruption in TrypLE Express (ThermoFisher, 12605010) to remove Matrigel and dissociate organoids to single cells. After vigorous pipetting and incubation at 37° C. for 20 min, dissociated organoids were strained through a 35 μm cell strainer into a tube (Falcon, 352235). […] Cell pellets were resuspended in FACS buffer (2% FBS in PBS), and then transferred to an ultra low-bind 96-well plate (Corning, 7007). Cells were stained with Zombie-violet viability dye (BioLegend, 423107) at 100× for viability staining and/or antibody staining solution. FITC-conjugated antibody for lysozyme (Dako, F0372) and APC-conjugated antibody for CD24 (BioLegend, 138505) were used at 100× dilution. Flow cytometry was performed using an LSR Fortessa (BD; Koch Institute Flow Cytometry Core at MIT). The data were analyzed using FlowJo v10 software.
# The results of primary and secondary screening reflect a mixture of potential effects arising from small molecule treatment which may result in increases in total LYZ secretion. This includes contributions from enhanced Paneth cell differentiation, altered Paneth cell activity and changes in total cell number concurrent with differentiation. To better inform how the 6 compounds identified in the screen increased total secreted LYZ, and to isolate only those which enhance Paneth differentiation robustly, Applicants next utilized flow cytometry to measure the changes in Paneth cell representation within the treated organoids. […] Single live cells were selected by several gating strategies and Paneth cells were identified as lysozyme-high, CD24-mid, side scatter-high (SSC-high) (FIG. 27E). […] To evaluate whether the culture media supplements C and D may alter the effects of the 6 hits, Applicants also performed lysozyme assay in the canonical ENR culture condition in 3-D (because Paneth cells exist in an immature state within ENR, Applicants were unable to robustly quantify Paneth cell number via flow cytometry).
# Flow cytometry. ISC-enriched organoids in 3D Matrigel culture were passaged to a 48-well plate and induced differentiation for 6 days by ENR+CD media containing DMSO or each drug indicated in the figures. DMSO- or drug-containing media were changed every other day. On day 6, cells were washed twice with basal media, then harvested from Matrigel by the mechanical disruption in TrypLE Express (Thermo, #12605010) to remove Matrigel and dissociate organoids to single cells. After vigorous pipetting and incubation at 37° C. for 15 min, the cell solution was diluted twice with basal media and centrifuged at 300 ref for 3 min. The cell pellet was resuspended in FACS buffer (PBS containing 2% FBS) and replaced into a 96-well Clear Round Bottom Ultra-Low Attachment Microplate (Corning, #7007). The cell solution was centrifuged again at 300 rcf for 3 min at 4° C. to pellet the cells. Cells were stained with Zombie-violet dye (BioLegend, #423113) at 100× for viability staining for 20 min at RT in the dark. After centrifugation for 3 min at 300 rcf, cells were fixed in fixation buffer (FACS buffer containing 1% formaldehyde (Thermo, #28906)) for 15 min on ice in the dark. Cells were centrifuged again for 3 min at 300 rcf and blocked with staining buffer (FACS buffer containing 0.5% Tween20 (Sigma, P2287)) for 15 min at RT in the dark. Pelleted cells by the centrifugation for 3 min at 300 rcf are stained with FITC-conjugated anti-lysozyme antibody (Dako, F0372) and APC-conjugated anti-CD24 antibody (Biolegend, #138505) at 100× for 45 min at RT in the dark.
# [3] = 2-day treatment within 6-day ENR+CD differentiation, read at day 6
smiles,measurement,setting,value
O=C(/C=C\n1cnc(-c2cc(C(F)(F)F)cc(C(F)(F)F)c2)n1)NNc1cnccn1 [KPT-330],Dose.FC.LYZ.S,[1]; 0.02 uM,−0.004 log2 fold change
same,Dose.FC.LYZ.S,[1]; 0.04 uM,−0.077 log2 fold change
same,Dose.FC.LYZ.S,[1]; 0.08 uM,0.134 log2 fold change
same,Dose.FC.LYZ.S,[1]; […],0.215 log2 fold change
same,increase in stimulated LYZ secretion (LYZ.S) relative to ENR+CD control,"[1]; validated dose-treatments, mean fold change vs ENR+CD+DMSO",50-75%
same,"enrichment in mature Paneth cells, treatment day 0-2",[2]; [3],greatest enrichment in mature Paneth cells
same,"enrichment in mature Paneth cells, treatment day 2-4",[2]; [3],moderate enrichment
same,"enrichment in mature Paneth cells, treatment day 4-6 (by flow cytometry)",[2]; [3],no different than untreated
same,increase in mature Paneth cells at day 6 of differentiation,[2]; ENR+CD + KPT-330 vs control,2 fold
same,mature Paneth cell population within organoids,"[2]; most potent dose from 2.5-D screening, ENR+CD 6 days, 3-D culture",significantly enhanced the mature Paneth cell population
